Reference: PubChem BioAssay AID1963429 (Molecular Pharmacology Branch, DTP, NCI, 2024)

System: 126254-015-R-J1-PDC complex spheroid growth, % test/control
Experiment: Anticancer human tumor 126254-015-R-J1-PDC patient-derived soft tissue sarcoma cell line growth inhibition [Asc]
Conditions: for IC50: curve of first compound; for viability, T/C: stronger effect = lower value
How it was run: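 Tumor cells were grown as complex spheroids with human endothelial cells (HUVEC) and human mesenchymal stem cells as stroma. Agents were tested alone and in combination, in half-log steps down from the clinical Cmax, or from 10 microM where Cmax was unknown.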
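Note: spheroids exposed to compound for seven days.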
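Throughout, for viability, T/C: 100% = DMSO vehicle control wells.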

IC50 (second compound 0.1 µM): > 1000 nM
IC50 (second compound 0.316 µM): > 1000 nM
IC50 (second compound 1 µM): > 1000 nM
IC50 (second compound 3.16 µM): > 1000 nM
IC50 (second compound 10 µM): > 1000 nM
Structure (SMILES): CCN1CCN(Cc2ccc(Nc3ncc(F)c(-c4cc(F)c5nc(C)n(C(C)C)c5c4)n3)nc2)CC1 + Cc1c(S(C)(=O)=O)c(-c2cc(F)cc(N3CCN(c4ccc(NS(=O)(=O)c5ccc(NC(CCN6CCC(C(=O)OCCCP(=O)(O)O)CC6)CSc6ccccc6)c(S(=O)(=O)C(F)(F)F)c5)cc4)CC3)c2)c(-c2ccc(Cl)cc2)n1C(C)C
viability, T/C (second compound 0.1 µM, first compound 0.00316 µM): 99.3%
viability, T/C (second compound 0.1 µM, first compound 0.01 µM): 95.5%
viability, T/C (second compound 0.1 µM, first compound 0.0316 µM): 88.4%
viability, T/C (second compound 0.1 µM, first compound 0.1 µM): 90.1%
viability, T/C (second compound 0.1 µM, first compound 0.316 µM): 110%
viability, T/C (second compound 0.1 µM, first compound 1 µM): 98.4%
viability, T/C (second compound 0.316 µM, first compound 0.00316 µM): 87.8%
viability, T/C (second compound 0.316 µM, first compound 0.01 µM): 89.1%
viability, T/C (second compound 0.316 µM, first compound 0.0316 µM): 84.4%
viability, T/C (second compound 0.316 µM, first compound 0.1 µM): 95.5%
viability, T/C (second compound 0.316 µM, first compound 0.316 µM): 90.3%
viability, T/C (second compound 0.316 µM, first compound 1 µM): 87%
viability, T/C (second compound 1 µM, first compound 0.00316 µM): 86.5%
viability, T/C (second compound 1 µM, first compound 0.01 µM): 81.7%
viability, T/C (second compound 1 µM, first compound 0.0316 µM): 93.3%
viability, T/C (second compound 1 µM, first compound 0.1 µM): 86.4%
viability, T/C (second compound 1 µM, first compound 0.316 µM): 97.9%
viability, T/C (second compound 1 µM, first compound 1 µM): 73.3%
viability, T/C (second compound 3.16 µM, first compound 0.00316 µM): 96.6%
viability, T/C (second compound 3.16 µM, first compound 0.01 µM): 87.7%
viability, T/C (second compound 3.16 µM, first compound 0.0316 µM): 90.1%
viability, T/C (second compound 3.16 µM, first compound 0.1 µM): 72.4%
viability, T/C (second compound 3.16 µM, first compound 0.316 µM): 86.6%
viability, T/C (second compound 3.16 µM, first compound 1 µM): 87.3%
viability, T/C (second compound 10 µM, first compound 0.00316 µM): 86.5%
viability, T/C (second compound 10 µM, first compound 0.01 µM): 90.4%
viability, T/C (second compound 10 µM, first compound 0.0316 µM): 86.1%
viability, T/C (second compound 10 µM, first compound 0.1 µM): 98%
viability, T/C (second compound 10 µM, first compound 0.316 µM): 87.5%
viability, T/C (second compound 10 µM, first compound 1 µM): 73.8%
